The numbers were not newly measured in patent US7713673B2, “Fixing liquid, toner fixing method, toner fixing device, image forming method, and image forming apparatus” (priority 2005, dated 2010), which cites them from elsewhere.

For this data set the following is noted: acute oral toxicity; given in brackets as a material property of the component.
For orientation: LD50 means the dose expected to kill half of the subjects tested. On to `CC(O)CO` (stereo not shown) [propylene glycol], for which the LD50 was 15000 mg/kg. As for `CC(O)CCO` (stereo not shown) [1,3-butanediol], the 50% lethal dose (LD50) was 10000 mg/kg. With `CCCCOC(=O)CCCCCCCCC(=O)OCCCC` [dibutyl sebacate], the LD50 is 12800 mg/kg. `CCO` [ethanol]: the LD50 is 15000 mg/kg. Take `CCCCCCCCCCCC(=O)OCC` [ethyl laurate]: the LD50 is 5000 mg/kg. `CC(C)COC(=O)CCCCC(=O)OCC(C)C` [diisobutyl adipate]: the LD50 was 12800 mg/kg. For the compound `CCOCCOC(=O)CCC(=O)OCCOCC` [diethoxyethyl succinate], the LD50 is 5000 mg/kg.
